Measurements as given in the NIST ThermoML archive (doi:10.1021/je101213p).
Several values for one entry are separate records, joined by “and”; a condition that tells them apart may be missing. Identical values can stand only once. ± gives the expanded uncertainty stated by the source.

Tests used:
[1] = Molar enthalpy of transition or fusion; settings: DSC
[2] = DTA
[3] = molar heat capacity at constant pressure; settings: 101.33 kPa, Liquid, Large sample (1 g) DSC

CCCCCCCCn1cc[n+](C)c1.O=S(=O)([N-]S(=O)(=O)C(F)(F)F)C(F)(F)F
Settings | Molar enthalpy of transition or fusion [kcal/mol] | Normal melting temperature [°C] | molar heat capacity at constant pressure [J/K/mol]
[1], Metastable crystal | 6.56 ± 0.43 | – | –
[2], Metastable crystal | – | -23.34 ± 0.61 | –
[3], 281.99 K | – | – | 693.71 ± 23
[3], 291.95 K | – | – | 695.62 ± 23
[3], 302.86 K | – | – | 690.39 ± 23
[3], 302.88 K | – | – | 692.29 ± 23
[3], 312.83 K | – | – | 705.13 ± 23
[3], 312.86 K | – | – | 705.6 ± 23
[3], 322.79 K | – | – | 714.16 ± 24
[3], 322.84 K | – | – | 719.87 ± 24
[3], 332.76 K | – | – | 719.87 ± 24
[3], 332.81 K | – | – | 732.7 ± 24
[3], 342.72 K | – | – | 725.57 ± 24
[3], 342.78 K | – | – | 748.39 ± 25
[3], 352.68 K | – | – | 730.33 ± 24
[3], 352.74 K | – | – | 757.9 ± 25
[3], 362.65 K | – | – | 736.98 ± 24
[3], 362.71 K | – | – | 767.89 ± 26
[3], 372.62 K | – | – | 742.21 ± 25
[3], 372.66 K | – | – | 779.78 ± 26

CCCCCC[n+]1ccn(C)c1.O=S(=O)([N-]S(=O)(=O)C(F)(F)F)C(F)(F)F
Settings | Molar enthalpy of transition or fusion [kcal/mol] | Normal melting temperature [°C] | molar heat capacity at constant pressure
[1], Crystal | 6.62 ± 0.43 | – | –
[2], Crystal | – | -1.70 ± 0.61 | –
[3], 302.86 K | – | – | 655.92 ± 22 J/K/mol
[3], 312.83 K | – | – | 632.65 ± 21 J/K/mol and 660.84 ± 22 J/K/mol
[3], 322.79 K | – | – | 666.66 ± 22 J/K/mol
[3], 322.81 K | – | – | 640.7 ± 21 J/K/mol
[3], 332.76 K | – | – | 668 ± 22 J/K/mol
[3], 332.78 K | – | – | 648.76 ± 21 J/K/mol
[3], 342.73 K | – | – | 671.58 ± 22 J/K/mol
[3], 342.76 K | – | – | 657.26 ± 22 J/K/mol
[3], 352.7 K | – | – | 676.95 ± 22 J/K/mol
[3], 352.72 K | – | – | 666.66 ± 22 J/K/mol
[3], 362.67 K | – | – | 683.66 ± 23 J/K/mol
[3], 362.68 K | – | – | 679.18 ± 22 J/K/mol
[3], 372.64 K | – | – | 690.82 ± 23 J/K/mol
